Test results from ChEMBL document CHEMBL1201862, “PubChem BioAssay data set” (2004).
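96-well plates; 48 h exposure; 5 concentrations. Endpoints by linear interpolation between flanking doses. Not reached: highest tested concentration assigned. GI50 marks 50% less growth.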 Calls of active or inactive are those of the source. Cut-off read from the data, not from the text of the source: active = GI50 up to about 1.1 µM and inactive = higher.

What was measured:
Experiment in all cases: NCI tumour cell line growth inhibition, 48 h
MCF7 = test system: MCF7
A549 = test system: A549
SK-OV-3 = test system: SK-OV-3
CCRF-CEM = test system: CCRF-CEM
SK-MEL-28 = test system: SK-MEL-28
HCT-116 = test system: HCT-116
MDA-MB-231 = test system: MDA-MB-231
SF-295 = test system: SF-295
CAKI-1 = test system: CAKI-1
UACC-257 = test system: UACC-257
SF-539 = test system: SF-539
EKVX = test system: EKVX
SN12C = test system: SN12C
K562 = test system: K562
SNB-19 = test system: SNB-19
OVCAR-8 = test system: OVCAR-8
ACHN = test system: ACHN
NCI-H460 = test system: NCI-H460
RXF 393 = test system: RXF 393
SF-268 = test system: SF-268

Measured: GI50

CCCCCCCCCCCCCCCCCCOc1ccc(/C=C/C2=[N+](CCCl)CCO2)cc1
inactive: MCF7 > 100 µM | A549 > 100 µM | SK-OV-3 > 100 µM | CCRF-CEM > 100 µM | SK-MEL-28 > 100 µM | HCT-116 > 100 µM | MDA-MB-231 41 µM | SF-295 > 100 µM | CAKI-1 > 100 µM | UACC-257 > 100 µM | SF-539 > 100 µM | EKVX > 100 µM | SN12C > 100 µM | K562 > 100 µM | SNB-19 > 100 µM | OVCAR-8 > 100 µM | ACHN > 100 µM | NCI-H460 > 100 µM

C[C@@H](CO)C1=CC(C#C[Si](C)(C)C)N(C(=O)Oc2ccccc2)c2ccccc21 (some centres not stated)
inactive: A549 20.9 µM | RXF 393 5.86 µM | SK-OV-3 23.3 µM | CCRF-CEM 20.4 µM | SK-MEL-28 18.2 µM | HCT-116 15.3 µM | MDA-MB-231 17.7 µM | SF-295 12.2 µM | CAKI-1 24 µM | UACC-257 16.8 µM | SF-539 17.8 µM | EKVX 23.3 µM | SN12C 16.8 µM | K562 1.49 µM | SF-268 16.5 µM | SNB-19 27.2 µM | OVCAR-8 17.5 µM | ACHN 18.6 µM | NCI-H460 18.1 µM

COc1ccc2c(c1)-c1[nH]c3ccccc3c1CC2
inactive: MCF7 14.9 µM | A549 15.2 µM | SK-OV-3 18.1 µM | CCRF-CEM 18 µM | SK-MEL-28 16.8 µM | HCT-116 16.9 µM | MDA-MB-231 16.8 µM | SF-295 14.2 µM | CAKI-1 15.4 µM | UACC-257 16.3 µM | SF-539 17.4 µM | EKVX 10.1 µM | SN12C 14.4 µM | K562 21.6 µM | SF-268 14.9 µM | SNB-19 15.7 µM | OVCAR-8 12.6 µM | ACHN 18.1 µM | NCI-H460 15.6 µM

CC(=O)N1c2ccccc2[C@H]2CCc3c([nH]c4ccccc34)[C@H]21
inactive: A549 17.2 µM | RXF 393 13.2 µM | SK-OV-3 28.3 µM | CCRF-CEM 11.6 µM | SK-MEL-28 14.7 µM | HCT-116 3.07 µM | MDA-MB-231 11.4 µM | SF-295 13.9 µM | CAKI-1 15.6 µM | UACC-257 31.6 µM | SF-539 11.8 µM | EKVX 14.5 µM | SN12C 13.7 µM | K562 8.57 µM | SF-268 15.4 µM | SNB-19 24.3 µM | OVCAR-8 25.3 µM | ACHN 16 µM | NCI-H460 8.39 µM

CC12CC(c3ccccc3O1)C(C(=O)Nc1ccc(F)cc1)C(=O)N2 (configuration not stated)
inactive: MCF7 > 100 µM | A549 91 µM | SK-OV-3 > 100 µM | CCRF-CEM 28.2 µM | SK-MEL-28 > 100 µM | HCT-116 > 100 µM | CAKI-1 > 100 µM | UACC-257 81.8 µM | SF-539 > 100 µM | EKVX 45.2 µM | K562 47.9 µM | SF-268 > 100 µM | SNB-19 > 100 µM | OVCAR-8 36 µM | ACHN > 100 µM | NCI-H460 89.7 µM

N=C(N)NS(=O)(=O)c1ccc(Nc2c3ccccc3nc3c(C(=O)Nc4ccc(S(N)(=O)=O)cc4)cccc23)cc1
inactive: A549 > 100 µM | RXF 393 95.3 µM | SK-OV-3 > 100 µM | CCRF-CEM 71.3 µM | SK-MEL-28 > 100 µM | HCT-116 > 100 µM | SF-295 > 100 µM | CAKI-1 > 100 µM | UACC-257 > 100 µM | SF-539 52.5 µM | EKVX > 100 µM | SN12C > 100 µM | K562 33.3 µM | SF-268 98.9 µM | SNB-19 37 µM | OVCAR-8 > 100 µM | ACHN > 100 µM | NCI-H460 > 100 µM

COC1=CC(=O)c2c(cc3c(c2O)-c2c(OC)cc4cc5c(c(O)c4c2OC(=O)CC(C)(O)C3)C(=O)CC(C)(O)C5)C1=O (configuration not stated)
inactive: A549 2.68 µM | RXF 393 2.05 µM | SK-OV-3 2.76 µM | CCRF-CEM 1.95 µM | SK-MEL-28 1.32 µM | HCT-116 2.45 µM | SF-295 1.44 µM | CAKI-1 2.23 µM | UACC-257 1.76 µM | SF-539 1.57 µM | EKVX 2.27 µM | SN12C 1.8 µM | K562 2.44 µM | SF-268 2.97 µM | SNB-19 1.71 µM | OVCAR-8 1.55 µM | ACHN 2.64 µM | NCI-H460 1.31 µM

Cc1ccc(C(=O)/C=C/c2cccc([N+](=O)[O-])c2)cc1
inactive: A549 > 100 µM | RXF 393 > 43.7 µM | SK-OV-3 > 94.4 µM | CCRF-CEM 29.1 µM | SK-MEL-28 > 100 µM | HCT-116 16.6 µM | SF-295 55.5 µM | CAKI-1 > 92 µM | UACC-257 > 100 µM | SF-539 > 58.6 µM | EKVX > 100 µM | SN12C > 56.4 µM | K562 28.4 µM | SF-268 > 67.5 µM | SNB-19 60.1 µM | OVCAR-8 42.9 µM | ACHN > 100 µM | NCI-H460 > 100 µM

O=C(O)CCC(c1ccccc1)(c1ccccc1)c1ccccc1
inactive: MCF7 17.7 µM | A549 28.9 µM | SK-OV-3 31.9 µM | CCRF-CEM 64.3 µM | SK-MEL-28 50.5 µM | MDA-MB-231 43.6 µM | SF-295 50.7 µM | UACC-257 37 µM | SF-539 33.3 µM | EKVX 36 µM | SN12C 38.9 µM | K562 37.7 µM | SF-268 24.5 µM | SNB-19 42.3 µM | OVCAR-8 30.3 µM | ACHN 31 µM | NCI-H460 25.2 µM

Cc1ccc(/C=C2\CCCCCC2=O)cc1
inactive: A549 > 100 µM | SK-OV-3 > 100 µM | CCRF-CEM 41.3 µM | SK-MEL-28 > 100 µM | HCT-116 > 100 µM | MDA-MB-231 > 100 µM | SF-295 > 100 µM | CAKI-1 > 100 µM | UACC-257 > 100 µM | EKVX > 100 µM | SN12C > 100 µM | K562 > 100 µM | SF-268 > 100 µM | SNB-19 > 100 µM | ACHN > 100 µM | NCI-H460 > 100 µM

O=c1c(C(c2ccco2)c2c(O)oc3ccccc3c2=O)c(O)oc2ccccc12
inactive: CCRF-CEM 26.8 µM | SK-MEL-28 21.2 µM | HCT-116 78 µM | MDA-MB-231 20 µM | CAKI-1 21.8 µM | UACC-257 23.4 µM | EKVX 47 µM | SN12C 25.1 µM | K562 38.6 µM | SF-268 31.9 µM | SNB-19 44.6 µM | OVCAR-8 27.4 µM | ACHN 27.1 µM | NCI-H460 > 100 µM
